Activity calls are given as the source filed them. The rule behind the calls is not given here. Where a SMILES comes first, the peptide text is derived from it.
Columns and labels:
[1] = biological target: Frizzled-1 (Rattus norvegicus) (UniProt Q08463); assay: Antagonist activity at Wnt3a-stimulated rat frizzled-1 expressed in CHO cells up to 10 uM incubated for 24 hrs by luciferase reporter gene assay; type: cell-based; settings: dose microM <=10, time 24.0 hrs
[2] = biological target: Frizzled-2 (Rattus norvegicus) (UniProt Q08464); assay: Antagonist activity at Wnt3a-stimulated rat frizzled-2 expressed in […] cells up to 10 uM incubated for 24 hrs by luciferase reporter gene assay; type: cell-based; settings: dose microM <=10, time 24.0 hrs
[3] = biological target: Frizzled-1 (Rattus norvegicus) (UniProt Q08463); assay: Antagonist activity at Wnt3a-stimulated rat frizzled-1 expressed in African green monkey COS7 cells up to 10 uM incubated for 24 hrs by luciferase reporter gene assay; type: cell-based; settings: dose microM <=10, time 24.0 hrs
[4] = biological target: Frizzled-2 (Rattus norvegicus) (UniProt Q08464); assay: Antagonist activity at Wnt3a-stimulated rat frizzled-2 expressed in African green monkey COS7 cells up to 10 uM incubated for 24 hrs by luciferase reporter gene assay; type: cell-based; settings: dose microM <=10, time 24.0 hrs
[5] = biological target: Frizzled-1 (Homo sapiens) (UniProt Q9UP38); assay: Antagonist activity at Wnt3a-stimulaed frizzled-1 (unknown origin) expressed in human HEK293superTOP flash cells at 1 nM incubated for 24 hrs by luciferase reporter gene assay (reference value: 0%); type: functional, cell-based
[6] = biological target: Frizzled-2 (Homo sapiens) (UniProt Q14332); assay: Antagonist activity at Wnt3a-stimulaed frizzled-2 (unknown origin) expressed in human HEK293superTOP flash cells at 1 nM incubated for 24 hrs by luciferase reporter gene assay (reference value: 0%); type: functional, cell-based
[7] = biological target: Frizzled-2 (Homo sapiens) (UniProt Q14332); assay: Antagonist activity at Wnt3a-stimulated frizzled-2 (unknown origin) expressed in human HEK293superTOP flash cells at 10 nM incubated for 24 hrs by luciferase reporter gene assay; type: functional, cell-based; settings: HEK293
[8] = biological target: Frizzled-1 (Homo sapiens) (UniProt Q9UP38); assay: Antagonist activity at Wnt3a-stimulated frizzled-1 (unknown origin) expressed in human HEK293superTOP flash cells at 10 nM incubated for 24 hrs by luciferase reporter gene assay; type: functional, cell-based; settings: HEK293

Chain of Frizzled-2 (Rattus norvegicus) (Q08464 29-570 limits assumed): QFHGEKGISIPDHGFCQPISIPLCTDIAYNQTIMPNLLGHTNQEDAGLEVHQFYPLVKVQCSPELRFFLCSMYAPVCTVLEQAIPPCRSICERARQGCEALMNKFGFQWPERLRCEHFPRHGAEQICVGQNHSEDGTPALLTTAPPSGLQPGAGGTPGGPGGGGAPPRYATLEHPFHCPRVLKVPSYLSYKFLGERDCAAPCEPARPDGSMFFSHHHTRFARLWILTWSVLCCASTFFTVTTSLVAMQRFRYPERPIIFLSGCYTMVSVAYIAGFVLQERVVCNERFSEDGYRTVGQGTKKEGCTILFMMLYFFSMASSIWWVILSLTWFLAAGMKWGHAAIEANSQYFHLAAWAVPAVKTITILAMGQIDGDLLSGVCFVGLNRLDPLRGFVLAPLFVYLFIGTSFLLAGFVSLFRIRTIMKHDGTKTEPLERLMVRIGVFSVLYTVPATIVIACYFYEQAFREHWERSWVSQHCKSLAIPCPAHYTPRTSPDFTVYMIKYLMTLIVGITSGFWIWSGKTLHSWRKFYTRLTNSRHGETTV
Chain of Frizzled-2 (Homo sapiens) (Q14332 24-565 limits assumed): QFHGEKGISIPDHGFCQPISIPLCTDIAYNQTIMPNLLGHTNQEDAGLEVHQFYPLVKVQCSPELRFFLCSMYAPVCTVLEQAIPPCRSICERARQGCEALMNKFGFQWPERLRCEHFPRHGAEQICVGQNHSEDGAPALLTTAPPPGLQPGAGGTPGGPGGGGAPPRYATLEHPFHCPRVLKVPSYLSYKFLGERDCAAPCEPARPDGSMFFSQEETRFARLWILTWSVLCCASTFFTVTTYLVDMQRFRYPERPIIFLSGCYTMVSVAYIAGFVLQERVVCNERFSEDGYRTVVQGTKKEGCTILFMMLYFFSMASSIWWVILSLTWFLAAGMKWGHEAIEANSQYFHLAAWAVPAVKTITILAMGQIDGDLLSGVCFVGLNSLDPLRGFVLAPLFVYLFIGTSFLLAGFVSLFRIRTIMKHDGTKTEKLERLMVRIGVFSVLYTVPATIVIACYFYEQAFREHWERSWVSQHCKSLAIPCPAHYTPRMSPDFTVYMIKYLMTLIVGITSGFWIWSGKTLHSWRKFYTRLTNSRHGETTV
Chain of Frizzled-1 (Rattus norvegicus) (Q08463 whole entry): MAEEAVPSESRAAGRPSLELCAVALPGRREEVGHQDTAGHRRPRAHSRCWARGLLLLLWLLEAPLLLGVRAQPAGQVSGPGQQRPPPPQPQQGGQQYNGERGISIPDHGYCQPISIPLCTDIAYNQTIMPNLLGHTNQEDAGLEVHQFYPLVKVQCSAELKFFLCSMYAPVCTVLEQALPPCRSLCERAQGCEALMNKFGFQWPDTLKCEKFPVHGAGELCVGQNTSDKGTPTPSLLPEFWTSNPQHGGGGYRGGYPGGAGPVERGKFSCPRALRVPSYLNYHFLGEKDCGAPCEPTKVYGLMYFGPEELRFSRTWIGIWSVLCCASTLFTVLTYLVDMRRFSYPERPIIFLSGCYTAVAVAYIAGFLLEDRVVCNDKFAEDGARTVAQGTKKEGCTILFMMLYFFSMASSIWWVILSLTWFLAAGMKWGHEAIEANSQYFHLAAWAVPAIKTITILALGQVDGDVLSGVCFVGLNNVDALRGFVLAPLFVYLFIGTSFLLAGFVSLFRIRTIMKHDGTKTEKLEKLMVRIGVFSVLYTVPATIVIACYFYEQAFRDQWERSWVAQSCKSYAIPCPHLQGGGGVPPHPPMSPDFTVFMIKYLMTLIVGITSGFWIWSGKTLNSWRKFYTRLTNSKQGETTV
Chain of Frizzled-1 (Homo sapiens) (Q9UP38 70-647 limits assumed): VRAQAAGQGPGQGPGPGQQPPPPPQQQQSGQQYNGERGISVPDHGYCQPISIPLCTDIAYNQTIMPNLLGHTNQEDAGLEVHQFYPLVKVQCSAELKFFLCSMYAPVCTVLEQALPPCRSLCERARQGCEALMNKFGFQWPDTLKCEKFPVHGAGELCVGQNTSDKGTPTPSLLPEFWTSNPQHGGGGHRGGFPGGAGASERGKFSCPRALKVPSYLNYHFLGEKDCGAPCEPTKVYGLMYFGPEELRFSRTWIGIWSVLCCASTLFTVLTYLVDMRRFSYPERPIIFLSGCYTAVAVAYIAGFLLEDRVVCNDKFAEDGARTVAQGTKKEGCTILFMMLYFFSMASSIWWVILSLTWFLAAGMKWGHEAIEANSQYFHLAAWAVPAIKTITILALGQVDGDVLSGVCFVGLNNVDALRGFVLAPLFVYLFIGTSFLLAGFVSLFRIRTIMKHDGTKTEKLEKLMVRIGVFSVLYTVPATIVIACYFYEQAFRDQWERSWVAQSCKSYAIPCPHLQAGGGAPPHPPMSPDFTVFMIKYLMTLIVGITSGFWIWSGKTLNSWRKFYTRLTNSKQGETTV

| inhibition [1] | inhibition [2] | inhibition [3] | inhibition [4] | inhibition ([5]; HEK293, filed as antagonist) [%] | inhibition ([6]; HEK293, filed as antagonist) [%] | inhibition [7] | inhibition [8] | inhibition ([5]; HEK293) [%] | inhibition ([6]; HEK293) [%] | Compound |
| --- | --- | --- | --- | --- | --- | --- | --- | --- | --- | --- |
| inactive | inactive | inactive | inactive | 68 | 79.5 | inactive | inactive | – | – | CSCC[C@H](NC(=O)CNC(=O)[C@H](CCC(=O)O)NC(=O)[C@H](CO)NC(=O)[C@@H](NC(=O)[C@H](CCCCN)NC(=O)[C@H](C)NC(=O)[C@H](CS)NC(C)=O)[C@@H](C)O)C(=O)N[C@@H](CC(=O)O)C(=O)NCC(=O)N[C@@H](CS)C(=O)N[C@@H](CCC(=O)O)C(=O)N[C@@H](CC(C)C)C(N)=O (Ac-CAKTSEGMDGCEL-NH2) |
| inactive | inactive | inactive | inactive | 70.8 | 84.9 | inactive | inactive | – | – | CSCC[C@H](NC(=O)CNC(=O)[C@H](CCC(=O)O)NC(=O)[C@H](CO)NC(=O)[C@@H](NC(=O)[C@H](C)NC(=O)[C@H](CC(N)=O)NC(=O)[C@H](CS)NC(C)=O)[C@@H](C)O)C(=O)N[C@@H](CC(=O)O)C(=O)NCC(=O)N[C@@H](CS)C(=O)N[C@@H](CCC(=O)O)C(=O)N[C@@H](CC(C)C)C(N)=O (Ac-CNATSEGMDGCEL-NH2) |
| inactive | inactive | inactive | inactive | – | – | inactive | inactive | 11.2 | 17.5 | CSCC[C@H](NC(=O)[C@H](C)NC(=O)[C@H](CCC(=O)O)NC(=O)[C@H](CO)NC(=O)[C@H](C)NC(=O)[C@H](CCCCN)NC(=O)[C@H](CC(N)=O)NC(=O)[C@H](CS)NC(C)=O)C(=O)N[C@@H](C)C(=O)NCC(=O)N[C@@H](CS)C(=O)N[C@@H](CCC(=O)O)C(=O)N[C@@H](CC(C)C)C(N)=O (Ac-CNKASEAMAGCEL-NH2) |
| inactive | inactive | inactive | inactive | – | 59.4 | inactive | inactive | 28.1 | – | CSCC[C@H](NC(=O)CNC(=O)[C@H](CCC(=O)O)NC(=O)[C@H](CO)NC(=O)[C@H](C)NC(=O)[C@H](CCCCN)NC(=O)[C@H](CC(N)=O)NC(=O)[C@H](CS)NC(C)=O)C(=O)N[C@@H](CC(=O)O)C(=O)NCC(=O)N[C@@H](CS)C(=O)N[C@@H](CCC(=O)O)C(=O)N[C@@H](CC(C)C)C(N)=O (Ac-CNKASEGMDGCEL-NH2) |
| inactive | inactive | inactive | inactive | 74.3 | 87.3 | inactive | inactive | – | – | CSCC[C@H](NC(=O)CNC(=O)[C@H](CCC(=O)O)NC(=O)[C@H](C)NC(=O)[C@@H](NC(=O)[C@H](CCCCN)NC(=O)[C@H](CC(N)=O)NC(=O)[C@H](CS)NC(C)=O)[C@@H](C)O)C(=O)N[C@@H](CC(=O)O)C(=O)NCC(=O)N[C@@H](CS)C(=O)N[C@@H](CCC(=O)O)C(=O)N[C@@H](CC(C)C)C(N)=O (Ac-CNKTAEGMDGCEL-NH2) |
| inactive | inactive | inactive | inactive | 70.8 | 84.7 | inactive | inactive | – | – | CSCC[C@H](NC(=O)CNC(=O)[C@H](C)NC(=O)[C@H](CO)NC(=O)[C@@H](NC(=O)[C@H](CCCCN)NC(=O)[C@H](CC(N)=O)NC(=O)[C@H](CS)NC(C)=O)[C@@H](C)O)C(=O)N[C@@H](CC(=O)O)C(=O)NCC(=O)N[C@@H](CS)C(=O)N[C@@H](CCC(=O)O)C(=O)N[C@@H](CC(C)C)C(N)=O (Ac-CNKTSAGMDGCEL-NH2) |
| inactive | inactive | inactive | inactive | 52.6 | 63.1 | inactive | inactive | – | – | CSCC[C@H](NC(=O)[C@H](C)NC(=O)[C@H](CCC(=O)O)NC(=O)[C@H](CO)NC(=O)[C@@H](NC(=O)[C@H](CCCCN)NC(=O)[C@H](CC(N)=O)NC(=O)[C@H](CS)NC(C)=O)[C@@H](C)O)C(=O)N[C@@H](CC(=O)O)C(=O)NCC(=O)N[C@@H](CS)C(=O)N[C@@H](CCC(=O)O)C(=O)N[C@@H](CC(C)C)C(N)=O (Ac-CNKTSEAMDGCEL-NH2) |
| inactive | inactive | inactive | inactive | 67.6 | 85 | inactive | inactive | – | – | CC(=O)N[C@@H](CS)C(=O)N[C@@H](CC(N)=O)C(=O)N[C@@H](CCCCN)C(=O)N[C@H](C(=O)N[C@@H](CO)C(=O)N[C@@H](CCC(=O)O)C(=O)NCC(=O)N[C@@H](C)C(=O)N[C@@H](CC(=O)O)C(=O)NCC(=O)N[C@@H](CS)C(=O)N[C@@H](CCC(=O)O)C(=O)N[C@@H](CC(C)C)C(N)=O)[C@@H](C)O (Ac-CNKTSEGADGCEL-NH2) |
| inactive | inactive | inactive | inactive | 40.5 | 60.5 | inactive | inactive | – | – | CSCC[C@H](NC(=O)CNC(=O)[C@H](CCC(=O)O)NC(=O)[C@H](CO)NC(=O)[C@@H](NC(=O)[C@H](CCCCN)NC(=O)[C@H](CC(N)=O)NC(=O)[C@H](CS)NC(C)=O)[C@@H](C)O)C(=O)N[C@@H](C)C(=O)NCC(=O)N[C@@H](CS)C(=O)N[C@@H](CCC(=O)O)C(=O)N[C@@H](CC(C)C)C(N)=O (Ac-CNKTSEGMAGCEL-NH2) |
| inactive | inactive | inactive | inactive | 69.9 | 83.3 | inactive | inactive | – | – | CSCC[C@H](NC(=O)CNC(=O)[C@H](CCC(=O)O)NC(=O)[C@H](CO)NC(=O)[C@@H](NC(=O)[C@H](CCCCN)NC(=O)[C@H](CC(N)=O)NC(=O)[C@H](CS)NC(C)=O)[C@@H](C)O)C(=O)N[C@@H](CC(=O)O)C(=O)N[C@@H](C)C(=O)N[C@@H](CS)C(=O)N[C@@H](CCC(=O)O)C(=O)N[C@@H](CC(C)C)C(N)=O (Ac-CNKTSEGMDACEL-NH2) |
| inactive | inactive | inactive | inactive | 66.8 | 74.3 | inactive | inactive | – | – | CSCC[C@H](NC(=O)CNC(=O)[C@H](CCC(=O)O)NC(=O)[C@H](CO)NC(=O)[C@@H](NC(=O)[C@H](CCCCN)NC(=O)[C@H](CC(N)=O)NC(=O)[C@H](CS)NC(C)=O)[C@@H](C)O)C(=O)N[C@@H](CC(=O)O)C(=O)NCC(=O)N[C@@H](CS)C(=O)N[C@@H](C)C(=O)N[C@@H](C)C(N)=O (Ac-CNKTSEGMDGCAA-NH2) |

Reference: ChEMBL document CHEMBL4806963, “Antagonistic peptides for frizzled-1 and frizzled-2” (2013)
